Source: publication PMC10608878, “Synthesis and Antiproliferative Activity of 2,6-Disubstituted Imidazo[4,5-b]pyridines Prepared by Suzuki Cross Coupling” (Molecules, 2023)
Like-named read-outs stand apart in the source and are kept apart here.

Tests used:
[1] = tested on: HL-60 acute myeloid leukemia cells; experiment: Antiproliferative activity, HL-60 cells; assay type: cell-based, human; conditions: Homo sapiens, HL-60, 72 h, HL-60, 72 h incubation
Protocol: (§1) All prepared imidazo[4,5-b]pyridines were tested for their antiproliferative activity against the following cancer cell lines: LN-229—glioblastoma, Capan-1—pancreatic adenocarcinoma, HCT-116—colorectal carcinoma, NCI-H460—lung carcinoma, DND-41—acute lymphoblastic leukemia, HL-60—acute myeloid leukemia, K-562—chronic myeloid leukemia, and Z-138—non-Hodgkin lymphoma cancer cells. An overview of the results is presented in Table 2 as IC50 values (50% inhibitory concentration). An established antitumor drug, etoposide (ETO), was included for comparison.
(§2) For proliferation assays, the human cancer cell lines used in this manuscript, namely Capan-1, HCT-116, NCI-H460, LN-229, HL-60, K-562, and Z-138, were acquired from the American Type Culture Collection (ATCC, Manassas, VA, USA), while the DND-41 cell line was purchased from the Deutsche Sammlung von Mikroorganismen und Zellkulturen (DSMZ Leibniz-Institut, Braunschweig, Germany). Culture media were purchased from Gibco (Gibco Life Technologies, Merelbeke, Belgium) and supplemented with 10% fetal bovine serum (HyClone, Cytiva, Marlborough, MA, USA). Adherent cell lines LN-229, HCT-116, NCI-H460, and Capan-1 cells were seeded in 384-well tissue culture plates (Greiner, Kremsmünster, Austria) at a density between 500 and 1500 cells per well (500 cells per well for Capan-1, 1000 cells per well for LN-229 and HCT-116, and 1500 cells per well for NCI-H460). The cells were treated with seven different concentrations of the test compounds in a 5-fold dilution series ranging from 100 to 0.006 µM after overnight incubation. Suspension cell lines HL-60, K-562, Z-138, and DND-41 were seeded at densities ranging from 2500 to 5500 cells per well (2500 cells per well for HL-60, K-562, and Z-138, and 5500 cells per well for DND-41) in 384-well culture plates containing the test compounds at the same concentration points. All conditions were incubated for 72 h before measuring the cell viability by the CellTiter 96® AQueous Non-Radioactive Cell Proliferation Assay (Promega, Madison, WA, USA) according to the manufacturer’s instructions. After 3 h, absorbance of all conditions was measured at 490 nm using a SpectraMax Plus 384 (Molecular Devices, San Jose, CA, USA), and the OD values were used to calculate the 50% inhibitory concentration (IC50). Compounds were tested in two independent experiments.

[2] = tested on: Z-138 non-Hodgkin lymphoma cells; experiment: Antiproliferative activity, Z-138 cells; assay type: cell-based, human; conditions: Homo sapiens, Z-138, 72 h, Z-138, 72 h incubation
Protocol: as §1, §2

[3] = tested on: HCT-116 colorectal carcinoma cells; experiment: Antiproliferative activity, HCT-116 cells; assay type: cell-based, human; conditions: Homo sapiens, HCT-116, 72 h, HCT-116, 72 h incubation
Protocol: as §1, §2

[4] = tested on: NCI-H460 lung carcinoma cells; experiment: Antiproliferative activity, NCI-H460 cells; assay type: cell-based, human; conditions: Homo sapiens, NCI-H460, 72 h, NCI-H460, 72 h incubation
Protocol: as §1, §2

[5] = tested on: LN-229 glioblastoma cells; experiment: Antiproliferative activity, LN-229 cells; assay type: cell-based, human; conditions: Homo sapiens, LN-229, 72 h, LN-229, 72 h incubation
Protocol: as §1, §2

[6] = tested on: normal peripheral blood mononuclear cells (PBMC); experiment: Toxicity in normal peripheral blood mononuclear cells; assay type: cell-based
Text: Figure 6 Toxicity of compounds 13 and 19 in normal cells.

[7] = tested on: K-562 chronic myeloid leukemia cells; experiment: Antiproliferative activity, K-562 cells; assay type: cell-based, human; conditions: Homo sapiens, K562, 72 h, K-562, 72 h incubation
Protocol: as §1, §2

host cell lines = host cell lines of the antiviral assays
[8] = tested on: Capan-1 pancreatic adenocarcinoma cells; experiment: Antiproliferative activity, Capan-1 cells; assay type: cell-based, human; conditions: Homo sapiens, CAPAN-1, 72 h, Capan-1, 72 h incubation
Protocol: as §1, §2

human cancer cell lines = experiment: Antiproliferative activity, panel of human cancer cell lines; assay type: cell-based
Protocol: as §1, §2

[9] = tested on: DND-41 acute lymphoblastic leukemia cells; experiment: Antiproliferative activity, DND-41 cells; assay type: cell-based, human; conditions: Homo sapiens, DND41, 72 h, DND-41, 72 h incubation
Protocol: as §1, §2

[10] = tested on: human coronavirus HCoV-OC43; experiment: Antiviral CPE assay, HCoV-OC43 in HEL 299; assay type: cell-based; conditions: HEL 299 host cells
in vitro [11] = conditions: human
[12] = tested on: human coronavirus HCoV-NL63; experiment: Antiviral CPE assay, HCoV-NL63 in Hep3B; assay type: cell-based; conditions: Hep3B host cells
[13] = tested on: influenza A/H3N2 (A/HK/7/87); experiment: Antiviral CPE assay, influenza A/H3N2 in MDCK; assay type: cell-based; conditions: Influenza A virus, MDCK host cells
[14] = tested on: respiratory syncytial virus (RSV) A; experiment: Antiviral CPE assay, RSV in Hep-2; assay type: cell-based; conditions: human respiratory syncytial virus; Hep-2 host cells
in vitro [15] = conditions: dog
[16] = tested on: influenza A/H1N1 (A/Ned/378/05); experiment: Antiviral CPE assay, influenza A/H1N1 in MDCK; assay type: cell-based; conditions: Influenza A virus, MDCK host cells
in vitro [17] = conditions: human; remark: listed apart in the source
[18] = tested on: influenza B (B/Ned/537/05); experiment: Antiviral CPE assay, influenza B in MDCK; assay type: cell-based; conditions: Influenza B virus; MDCK host cells
[19] = tested on: Semliki Forest virus (SFV); experiment: Antiviral CPE assay, SFV in VeroE6; assay type: cell-based; conditions: VeroE6 host cells
Zika virus (ZIKV) = experiment: Antiviral CPE assay, ZIKV in VeroE6; assay type: cell-based; conditions: VeroE6 host cells
in vitro [20] = conditions: human; remark: listed apart in the source
[21] = tested on: herpes simplex virus-1 (HSV-1 KOS); experiment: Antiviral CPE assay, HSV-1 in HEL 299; assay type: cell-based; conditions: HEL 299 host cells
yellow fever virus (YFV) = experiment: microbe, parasite or virus in culture; assay type: cell-based
in vitro [22] = conditions: African green monkey
Sindbis virus (SINDV) = experiment: Antiviral CPE assay, SINDV in VeroE6; assay type: cell-based; conditions: VeroE6 host cells
[23] = tested on: human coronavirus HCoV-229E; experiment: organism not typed; assay type: cell-based, human coronavirus 229E; conditions: HEL 299 host cells; read-out: Antiviral Activity (EC50) HCoV 229E HEL 299
LN-229 cells = experiment: Cell cycle progression, LN-229 cells; assay type: cell-based, human
Text: (§3) Lastly, the effects of lead compound 19 on the cell cycle progression of three cancer cell lines, namely HEp-2, NCI-H460, and LN-229, were explored.
(§4) Figure 7 The effects of lead compound 19 on cell cycle progression of NCI-H460 (left), LN-229 (middle), and Hep-2 (right) cells.

NCI-H460 cells = experiment: Cell cycle progression, NCI-H460 cells; assay type: cell-based, human
Text: as §3, §4

HEp-2 cells = experiment: Cell cycle progression, HEp-2 cells; assay type: cell-based, human
Text: as §3, §4

VeroE6 cells = conditions: read-out: Cytotoxicity (CC50) Vero E6; uninfected Vero E6 cells
HEL 299 cells = conditions: read-out: Cytotoxicity (CC50) HEL 299; uninfected HEL 299 cells
[24] = most/majority of the tested cancer cell lines, read-out: IC50 range against most of the tested cell lines
[25] = Yellow fever virus, Vero C1008, read-out: Antiviral Activity (EC50) YFV VeroE6

SMILES	IC50 [1] [µM]	IC50 [2] [µM]	IC50 [3] [µM]	IC50 [4] [µM]	IC50 [5] [µM]	IC50 [7] [µM]	IC50 [8] [µM]	IC50 [9] [µM]	EC50 ([10]; Betacoronavirus 1, OC43) [µM]	EC50 [12] [µM]	EC50 [14] [µM]	EC50 ([21]; Human alphaherpesvirus 1) [µM]	EC50 [23] [µM]	also measured
Oc1ccc(-c2cnc3[nH]c(-c4ccccc4)nc3c2)cc1 [Compound 13, 4-(2-phenyl-3H-imidazo [4,5-b]pyridin-6-yl)phenol]	1.65	1.87	3.94	4.25	4.1	3.42	1.5	4.25	–	–	–	–	–	Effect on viability of PBMC ([6]; 10 µM): little to no effect; Effect on viability of PBMC ([6]; 100 µM (highest dose tested)): negatively impacted the viability; Cytotoxicity on host cell lines (host cell lines): cytotoxicity was observed on all host cell lines, with the exception of the non-cancerous HEL 229 cells; IC50 (human cancer cell lines; Capan-1, HL-60 and Z-138 cell lines, read-out: IC50 range, particularly strong inhibition): 1.5 to 1.87 µM; IC50 (human cancer cell lines; [24]): 1.45 to 4.25 µM
N#Cc1ccc(-c2cnc3[nH]c(-c4ccccc4)nc3c2)cc1 [Compound 15, 4-(2-phenyl-3H-imidazo [4,5-b]pyridin-6-yl)benzonitrile]	37.2	34.4	> 100	> 100	79.2	> 100	10.8	> 100	> 50	> 50	> 50	> 50	31.3	CC50 (in vitro [11]): > 50 µM; EC50 [13]: 39.5 µM; CC50 (in vitro [15]): > 50 µM; EC50 [16]: 33.5 µM; CC50 (in vitro [17]): > 50 µM; EC50 [18]: 34.5 µM; EC50 ([19]; Semliki Forest virus, Vero C1008): > 50 µM; EC50 (Zika virus (ZIKV); Zika virus, Vero C1008): > 50 µM; CC50 (in vitro [20]): > 50 µM; EC50 (yellow fever virus (YFV); [25]): > 50 µM; CC50 (in vitro [22]): > 50 µM; EC50 (Sindbis virus (SINDV); Sindbis virus, Vero C1008): > 50 µM
Cn1c(-c2ccccc2)nc2cc(-c3ccc(O)cc3)cnc21 [Compound 19, 4-(3-methyl-2-phenyl-3H-imidazo [4,5-b]pyridin-6-yl)phenol]	3.3	1.45	2.32	2.83	1.77	1.5	1.9	1.57	–	–	–	–	–	Effect on cell cycle progression (LN-229 cells): strong accumulation of cells in the G2/M phase; Effect on cell cycle progression (NCI-H460 cells): strong accumulation of cells in the G2/M phase; Effect on viability of PBMC ([6]; 10 µM): little to no effect; Effect on viability of PBMC ([6]; 100 µM (highest dose tested)): negatively impacted the viability; Cytotoxicity on host cell lines (host cell lines): cytotoxicity was observed on all host cell lines, with the exception of the non-cancerous HEL 229 cells; IC50 (human cancer cell lines; Capan-1, LN-229, DND-41, K-562 and Z-138 cell lines, read-out: IC50 range, lowest inhibitory concentrations): 1.45 to 1.9 µM; IC50 (human cancer cell lines; [24]): 1.45 to 4.25 µM; Effect on cell cycle progression (HEp-2 cells): strong accumulation of cells in the G2/M phase
Cn1c(-c2ccccc2)nc2cc(-c3ccc(C(N)=O)cc3)cnc21 [Compound 22, 4-(3-methyl-2-phenyl-3H-imidazo[4,5-b]pyridin-6-yl)benzamide]	70.9	58.1	> 100	> 100	> 100	> 100	> 100	> 100	–	–	–	–	–	melting point: > 300 °C
CCOC(=O)[C@H]1O[C@@H]1C(=O)N[C@@H](CC(C)C)C(=O)NCCC(C)C [Compound E64d]	–	–	–	–	–	–	–	–	–	–	–	–	2	EC50 [10]: 3.9 µM; CC50 (VeroE6 cells): > 100 µM; EC50 [19]: > 100 µM; EC50 (Zika virus (ZIKV)): 27.8 µM; EC50 [21]: > 100 µM; EC50 (yellow fever virus (YFV); VeroE6 host cells, read-out: Antiviral Activity (EC50) YFV VeroE6): > 100 µM; CC50 (HEL 299 cells): > 100 µM; EC50 (Sindbis virus (SINDV)): > 100 µM
CCC(CC)COC(=O)[C@H](C)N[P@](=O)(OC[C@H]1O[C@@](C#N)(c2ccc3c(N)ncnn23)[C@H](O)[C@@H]1O)Oc1ccccc1 [Remdesivir, remdesivir]	–	–	–	–	–	–	–	–	0.06	0.2	0.006	> 10	0.2	CC50 (in vitro [11]): > 10 µM; CC50 (in vitro [17]): > 10 µM; CC50 (in vitro [20]): > 10 µM
NC(=O)c1ncn([C@@H]2O[C@H](CO)[C@@H](O)[C@H]2O)n1 [Ribavirin, ribavirin]	–	–	–	–	–	–	–	–	97.6	45.8	35.7	217	83.3	EC50 [13]: 12.3 µM; CC50 (in vitro [15]): > 250 µM; EC50 [16]: 6.6 µM; EC50 [18]: 5.2 µM; EC50 (yellow fever virus (YFV); [25]): 235 µM; CC50 (in vitro [22]): > 250 µM
